In patent publication US11767310B2, “Nicotinamide RIPK1 inhibitors” (AbbVie Inc., priority 2021, dated 2023):
Read-outs that look alike come from different tables or passages of the source.

Experiments:
Assay in all cases: Kinase binding screen
Conditions in all cases: read-out: Percent Control at 100 nM Compound Concentration
BRSK1 = BRSK1 (Homo sapiens (Human), UniProt Q8TDC3)
p38-beta = p38-beta (Homo sapiens (Human), UniProt Q15759)
IRAK4 = IRAK4 (Homo sapiens (Human), UniProt Q9NWZ3)
ASK1 = ASK1 (Homo sapiens (Human), UniProt Q99683)
RAF1 = RAF1 (Homo sapiens (Human), UniProt P04049)
MEK3 = MEK3 (Homo sapiens (Human), UniProt P46734)
SGK = SGK (Homo sapiens (Human), UniProt O00141)
DRAK2 = DRAK2 (Homo sapiens (Human), UniProt O94768)
NLK = NLK (Homo sapiens (Human), UniProt Q9UBE8)
p38-delta = p38-delta (Homo sapiens (Human), UniProt O15264)
EPHB1 = EPHB1 (Homo sapiens (Human), UniProt P54762)
CSNK1G3 = CSNK1G3 (Homo sapiens (Human), UniProt Q9Y6M4)
SLK = SLK (Homo sapiens (Human), UniProt Q9H2G2)
STK36 = STK36 (Homo sapiens (Human), UniProt Q9NRP7)
PAK1 = PAK1 (Homo sapiens (Human), UniProt Q13153)
CSNK1D = CSNK1D (Homo sapiens (Human), UniProt P48730)
RET(V804L) = RET(V804L) (Homo sapiens (Human), UniProt P07949, V804L)
SBK1 = SBK1 (Homo sapiens (Human), UniProt Q52WX2)
BIKE = BIKE (Homo sapiens (Human), UniProt Q9NSY1)
DMPK = DMPK (Homo sapiens (Human), UniProt Q09013)
GSK3B = GSK3B (Homo sapiens (Human), UniProt P49841)
[1] = target: RPS6KA5(Kin.Dom.2-C-terminal) (Homo sapiens (Human), UniProt O75582)
YES = YES (Homo sapiens (Human), UniProt P07947)
CSNK1G2 = CSNK1G2 (Homo sapiens (Human), UniProt P78368)
PHKG1 = PHKG1 (Homo sapiens (Human), UniProt Q16816)
CAMK1 = CAMK1 (Homo sapiens (Human), UniProt Q14012)
CAMK2D = CAMK2D (Homo sapiens (Human), UniProt Q13557)
MAP3K3 = MAP3K3 (Homo sapiens (Human), UniProt Q99759)
EPHA7 = EPHA7 (Homo sapiens (Human), UniProt Q15375)

Sequence of MAP3K3 (Q99759 whole entry): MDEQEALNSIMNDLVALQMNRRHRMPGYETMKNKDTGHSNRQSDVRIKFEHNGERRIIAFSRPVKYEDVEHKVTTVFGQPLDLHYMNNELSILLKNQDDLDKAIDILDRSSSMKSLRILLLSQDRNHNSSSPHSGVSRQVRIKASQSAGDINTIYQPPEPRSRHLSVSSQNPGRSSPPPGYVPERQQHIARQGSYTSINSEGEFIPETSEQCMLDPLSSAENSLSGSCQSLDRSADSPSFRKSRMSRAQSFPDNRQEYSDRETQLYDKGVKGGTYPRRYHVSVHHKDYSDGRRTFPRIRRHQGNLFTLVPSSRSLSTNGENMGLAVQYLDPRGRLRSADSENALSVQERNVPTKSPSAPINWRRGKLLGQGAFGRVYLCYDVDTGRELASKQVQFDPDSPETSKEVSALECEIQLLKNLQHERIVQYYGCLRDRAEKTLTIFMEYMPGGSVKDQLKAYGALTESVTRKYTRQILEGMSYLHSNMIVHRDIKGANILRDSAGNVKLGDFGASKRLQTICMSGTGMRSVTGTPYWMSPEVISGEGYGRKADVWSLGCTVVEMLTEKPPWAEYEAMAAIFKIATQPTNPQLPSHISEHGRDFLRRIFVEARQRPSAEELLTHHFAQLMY
Sequence of GSK3B (P49841 whole entry): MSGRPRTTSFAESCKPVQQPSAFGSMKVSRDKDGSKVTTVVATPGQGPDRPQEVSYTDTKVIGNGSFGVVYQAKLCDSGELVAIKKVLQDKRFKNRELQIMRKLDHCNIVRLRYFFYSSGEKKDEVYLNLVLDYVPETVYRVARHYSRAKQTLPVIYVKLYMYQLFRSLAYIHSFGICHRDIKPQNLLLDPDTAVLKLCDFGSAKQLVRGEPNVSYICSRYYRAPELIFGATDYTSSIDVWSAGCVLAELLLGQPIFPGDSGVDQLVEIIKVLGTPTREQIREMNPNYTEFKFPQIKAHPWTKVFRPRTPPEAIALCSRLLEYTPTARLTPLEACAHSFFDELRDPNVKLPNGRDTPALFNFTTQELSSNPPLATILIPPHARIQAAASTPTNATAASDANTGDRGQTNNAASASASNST
Sequence of RPS6KA5(Kin.Dom.2-C-terminal) (O75582 426-687): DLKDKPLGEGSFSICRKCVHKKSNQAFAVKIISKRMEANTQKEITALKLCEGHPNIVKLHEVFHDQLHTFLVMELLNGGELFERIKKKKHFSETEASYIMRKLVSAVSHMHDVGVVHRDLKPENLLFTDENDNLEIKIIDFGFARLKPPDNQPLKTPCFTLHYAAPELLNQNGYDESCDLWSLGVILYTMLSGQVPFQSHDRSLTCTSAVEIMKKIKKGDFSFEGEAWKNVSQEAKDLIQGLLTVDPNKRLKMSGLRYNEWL
Sequence of SGK (O00141 whole entry): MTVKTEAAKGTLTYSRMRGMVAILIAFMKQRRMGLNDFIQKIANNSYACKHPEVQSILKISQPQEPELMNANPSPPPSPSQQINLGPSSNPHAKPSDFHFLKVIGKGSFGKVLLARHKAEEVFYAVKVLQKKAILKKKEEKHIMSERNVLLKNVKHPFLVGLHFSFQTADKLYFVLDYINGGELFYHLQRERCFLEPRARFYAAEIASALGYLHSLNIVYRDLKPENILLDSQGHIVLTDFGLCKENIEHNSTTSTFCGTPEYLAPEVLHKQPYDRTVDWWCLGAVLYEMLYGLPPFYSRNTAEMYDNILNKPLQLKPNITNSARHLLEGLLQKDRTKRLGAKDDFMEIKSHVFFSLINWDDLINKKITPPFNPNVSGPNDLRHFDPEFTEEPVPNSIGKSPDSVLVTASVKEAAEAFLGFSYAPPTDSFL
Sequence of CAMK2D (Q13557 whole entry): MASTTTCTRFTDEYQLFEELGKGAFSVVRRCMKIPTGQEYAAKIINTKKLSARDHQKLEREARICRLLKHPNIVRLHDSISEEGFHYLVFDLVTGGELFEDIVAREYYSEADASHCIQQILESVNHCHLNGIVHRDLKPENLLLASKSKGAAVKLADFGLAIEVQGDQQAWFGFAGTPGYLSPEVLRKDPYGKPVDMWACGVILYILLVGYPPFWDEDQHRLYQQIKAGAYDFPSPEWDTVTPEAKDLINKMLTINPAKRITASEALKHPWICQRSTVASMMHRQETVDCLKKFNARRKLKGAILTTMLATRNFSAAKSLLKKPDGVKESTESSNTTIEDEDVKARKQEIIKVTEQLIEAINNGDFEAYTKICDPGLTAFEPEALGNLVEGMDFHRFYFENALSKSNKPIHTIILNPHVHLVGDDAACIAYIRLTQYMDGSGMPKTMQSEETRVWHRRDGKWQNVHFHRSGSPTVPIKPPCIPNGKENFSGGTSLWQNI
Sequence of p38-delta (O15264 whole entry): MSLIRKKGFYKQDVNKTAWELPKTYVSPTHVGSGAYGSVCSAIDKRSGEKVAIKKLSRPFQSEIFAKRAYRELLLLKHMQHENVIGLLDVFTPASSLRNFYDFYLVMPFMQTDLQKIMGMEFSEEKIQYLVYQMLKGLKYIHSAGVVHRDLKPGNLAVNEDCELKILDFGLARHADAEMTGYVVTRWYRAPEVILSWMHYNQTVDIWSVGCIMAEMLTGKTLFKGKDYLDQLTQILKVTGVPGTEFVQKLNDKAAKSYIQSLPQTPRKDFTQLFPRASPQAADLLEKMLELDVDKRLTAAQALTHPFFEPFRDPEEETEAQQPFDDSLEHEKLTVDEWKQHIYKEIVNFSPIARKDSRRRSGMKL
Sequence of MEK3 (P46734 whole entry): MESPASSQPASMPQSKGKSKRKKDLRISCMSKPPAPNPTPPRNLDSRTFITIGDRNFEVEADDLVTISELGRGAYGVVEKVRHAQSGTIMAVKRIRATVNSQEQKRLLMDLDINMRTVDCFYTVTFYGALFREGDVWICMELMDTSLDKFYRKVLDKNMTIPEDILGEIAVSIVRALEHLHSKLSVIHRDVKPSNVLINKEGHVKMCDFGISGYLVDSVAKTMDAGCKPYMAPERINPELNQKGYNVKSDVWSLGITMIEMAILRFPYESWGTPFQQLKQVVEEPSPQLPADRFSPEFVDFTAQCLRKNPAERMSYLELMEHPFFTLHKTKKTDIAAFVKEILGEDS
Sequence of STK36 (Q9NRP7 whole entry): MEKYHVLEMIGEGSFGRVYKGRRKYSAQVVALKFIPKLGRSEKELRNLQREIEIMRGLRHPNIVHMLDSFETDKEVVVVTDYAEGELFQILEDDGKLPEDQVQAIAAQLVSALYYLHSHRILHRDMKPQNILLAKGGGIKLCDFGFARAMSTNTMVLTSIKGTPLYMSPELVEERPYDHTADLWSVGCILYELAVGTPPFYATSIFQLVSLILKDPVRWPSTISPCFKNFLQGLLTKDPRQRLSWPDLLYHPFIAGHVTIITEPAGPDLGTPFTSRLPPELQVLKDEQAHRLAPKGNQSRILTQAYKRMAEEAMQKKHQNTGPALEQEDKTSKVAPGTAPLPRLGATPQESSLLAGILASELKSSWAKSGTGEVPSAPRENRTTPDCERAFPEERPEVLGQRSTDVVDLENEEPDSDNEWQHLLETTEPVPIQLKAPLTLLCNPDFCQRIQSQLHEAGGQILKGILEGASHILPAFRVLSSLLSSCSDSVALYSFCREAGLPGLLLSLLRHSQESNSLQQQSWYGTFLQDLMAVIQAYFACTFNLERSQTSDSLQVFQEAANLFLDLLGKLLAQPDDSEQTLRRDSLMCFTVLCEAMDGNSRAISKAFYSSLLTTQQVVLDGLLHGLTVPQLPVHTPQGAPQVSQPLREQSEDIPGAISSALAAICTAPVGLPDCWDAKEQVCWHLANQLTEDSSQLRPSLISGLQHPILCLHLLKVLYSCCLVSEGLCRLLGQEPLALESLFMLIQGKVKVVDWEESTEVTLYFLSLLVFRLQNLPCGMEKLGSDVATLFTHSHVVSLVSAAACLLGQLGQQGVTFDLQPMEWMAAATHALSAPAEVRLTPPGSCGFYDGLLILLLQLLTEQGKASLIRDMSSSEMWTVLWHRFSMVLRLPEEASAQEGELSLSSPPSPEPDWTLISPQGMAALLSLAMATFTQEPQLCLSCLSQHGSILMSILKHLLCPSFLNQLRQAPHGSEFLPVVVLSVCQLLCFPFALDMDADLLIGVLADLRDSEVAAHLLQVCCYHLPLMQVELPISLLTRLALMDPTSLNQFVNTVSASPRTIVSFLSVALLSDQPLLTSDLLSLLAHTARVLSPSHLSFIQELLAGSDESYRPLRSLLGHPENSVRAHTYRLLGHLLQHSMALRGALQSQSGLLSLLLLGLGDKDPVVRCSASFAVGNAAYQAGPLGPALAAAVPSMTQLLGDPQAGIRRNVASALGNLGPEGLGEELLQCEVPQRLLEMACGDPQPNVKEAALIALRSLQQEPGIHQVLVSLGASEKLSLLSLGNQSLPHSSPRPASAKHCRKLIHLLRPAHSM
Sequence of CAMK1 (Q14012 whole entry): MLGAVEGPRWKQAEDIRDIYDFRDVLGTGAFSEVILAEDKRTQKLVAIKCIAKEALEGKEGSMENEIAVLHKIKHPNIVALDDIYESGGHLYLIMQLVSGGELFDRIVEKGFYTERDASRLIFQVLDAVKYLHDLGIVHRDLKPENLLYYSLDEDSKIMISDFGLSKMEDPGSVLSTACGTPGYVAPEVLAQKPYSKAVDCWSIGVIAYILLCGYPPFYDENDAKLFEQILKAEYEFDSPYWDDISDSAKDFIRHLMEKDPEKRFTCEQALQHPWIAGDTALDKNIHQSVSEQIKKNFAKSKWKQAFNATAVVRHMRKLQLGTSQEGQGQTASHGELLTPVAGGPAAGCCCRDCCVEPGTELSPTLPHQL
Sequence of p38-beta (Q15759 whole entry): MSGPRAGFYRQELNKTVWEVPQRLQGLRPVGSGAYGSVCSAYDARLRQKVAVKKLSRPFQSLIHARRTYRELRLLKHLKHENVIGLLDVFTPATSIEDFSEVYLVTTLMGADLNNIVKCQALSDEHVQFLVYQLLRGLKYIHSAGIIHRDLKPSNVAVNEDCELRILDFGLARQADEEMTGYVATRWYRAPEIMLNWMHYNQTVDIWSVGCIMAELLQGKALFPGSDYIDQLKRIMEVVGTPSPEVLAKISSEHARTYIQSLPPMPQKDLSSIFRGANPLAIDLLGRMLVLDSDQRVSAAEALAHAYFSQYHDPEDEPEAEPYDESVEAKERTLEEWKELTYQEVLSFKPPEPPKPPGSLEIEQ

CN(C[C@@H](O)Cc1ccccc1)C(=O)c1cncc(C#Cc2cnn(C(F)F)c2)c1 [Example 2, (S)-5-((1-(difluoromethyl)-1H-pyrazol-4-yl)ethynyl)-N-(2-hydroxy-3-phenylpropyl)-N-methylnicotinamide]
remaining activity at 0.1 µM (BRSK1; BRSK1): 99% | remaining activity at 0.1 µM (p38-beta; p38-beta): 100% | remaining activity at 0.1 µM (IRAK4; IRAK4): 91% | remaining activity at 0.1 µM (ASK1; ASK1): 88% | remaining activity at 0.1 µM (RAF1; RAF1): 100% | remaining activity at 0.1 µM (MEK3; MEK3): 94% | remaining activity at 0.1 µM (SGK; SGK): 96% | remaining activity at 0.1 µM (DRAK2; DRAK2): 100% | remaining activity at 0.1 µM (NLK; NLK): 100% | remaining activity at 0.1 µM (p38-delta; p38-delta): 100% | remaining activity at 0.1 µM (EPHB1; EPHB1): 100% | remaining activity at 0.1 µM (CSNK1G3; CSNK1G3): 99% | remaining activity at 0.1 µM (SLK; SLK): 99% | remaining activity at 0.1 µM (STK36; STK36): 100% | remaining activity at 0.1 µM (PAK1; PAK1): 100% | remaining activity at 0.1 µM (CSNK1D; CSNK1D): 100% | remaining activity at 0.1 µM (RET(V804L); RET(V804L)): 100% | remaining activity at 0.1 µM (SBK1; SBK1): 97% | remaining activity at 0.1 µM (BIKE; BIKE): 100% | remaining activity at 0.1 µM (DMPK; DMPK): 100% | remaining activity at 0.1 µM (GSK3B; GSK3B): 100% | remaining activity at 0.1 µM ([1]; RPS6KA5(Kin.Dom.2-C-terminal)): 95% | remaining activity at 0.1 µM (YES; YES): 100% | remaining activity at 0.1 µM (CSNK1G2; CSNK1G2): 100% | remaining activity at 0.1 µM (PHKG1; PHKG1): 100% | remaining activity at 0.1 µM (CAMK1; CAMK1): 100% | remaining activity at 0.1 µM (CAMK2D; CAMK2D): 100% | remaining activity at 0.1 µM (MAP3K3; MAP3K3): 96% | remaining activity at 0.1 µM (EPHA7; EPHA7): 97%

CN(C[C@H](Cc1ccccc1)OP(=O)(O)O)C(=O)c1cncc(C#Cc2cnn(C(F)F)c2)c1 [Example 19, (S)-1-(5-((1-(difluoromethyl)-1H-pyrazol-4-yl)ethynyl)-N-methylnicotinamido)-3-phenylpropan-2-yl dihydrogen phosphate]
remaining activity at 0.1 µM (BRSK1): 99% | remaining activity at 0.1 µM (p38-beta): 97% | remaining activity at 0.1 µM (IRAK4): 83% | remaining activity at 0.1 µM (ASK1): 100% | remaining activity at 0.1 µM (RAF1): 100% | remaining activity at 0.1 µM (MEK3): 79% | remaining activity at 0.1 µM (SGK): 90% | remaining activity at 0.1 µM (DRAK2): 100% | remaining activity at 0.1 µM (NLK): 100% | remaining activity at 0.1 µM (p38-delta): 100% | remaining activity at 0.1 µM (EPHB1): 100% | remaining activity at 0.1 µM (CSNK1G3): 100% | remaining activity at 0.1 µM (SLK): 97% | remaining activity at 0.1 µM (STK36): 100% | remaining activity at 0.1 µM (PAK1): 100% | remaining activity at 0.1 µM (CSNK1D): 100% | remaining activity at 0.1 µM (RET(V804L)): 100% | remaining activity at 0.1 µM (SBK1): 95% | remaining activity at 0.1 µM (BIKE): 100% | remaining activity at 0.1 µM (DMPK): 100% | remaining activity at 0.1 µM (GSK3B): 98% | remaining activity at 0.1 µM [1]: 90% | remaining activity at 0.1 µM (YES): 100% | remaining activity at 0.1 µM (CSNK1G2): 95% | remaining activity at 0.1 µM (PHKG1): 100% | remaining activity at 0.1 µM (CAMK1): 62% | remaining activity at 0.1 µM (CAMK2D): 100% | remaining activity at 0.1 µM (MAP3K3): 92% | remaining activity at 0.1 µM (EPHA7): 96%
